# Laboratory results: patent publication US10227290B2, “Glycosphingolipids for use in modulating immune responses” (The Regents of the University of California, priority 2012, dated 2019)
# Tests used:
# [1] = target: T1, Mouse CD1d (mCD1d) tetramer / TCR of NKT cell hybridomas (Mus musculus, UniProt P11609); assay: Staining of NKT cell hybridomas with sphingolipid-loaded mCD1d tetramers (flow cytometry); format: binding; conditions: mCD1d tetramer loaded with the sphingolipid
# T1 construct: purchased NIH Tetramer Core Facility
# T1 sequence (P11609 19-297 limits assumed): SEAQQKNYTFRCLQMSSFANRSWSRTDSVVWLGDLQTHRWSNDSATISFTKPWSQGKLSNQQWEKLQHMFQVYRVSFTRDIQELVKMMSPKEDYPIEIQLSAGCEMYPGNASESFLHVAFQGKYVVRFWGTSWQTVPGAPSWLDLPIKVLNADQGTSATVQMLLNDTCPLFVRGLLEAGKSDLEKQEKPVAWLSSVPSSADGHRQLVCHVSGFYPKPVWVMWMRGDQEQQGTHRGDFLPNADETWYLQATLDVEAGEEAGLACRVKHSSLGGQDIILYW
# T1 sequence (P01887 21-119 partner): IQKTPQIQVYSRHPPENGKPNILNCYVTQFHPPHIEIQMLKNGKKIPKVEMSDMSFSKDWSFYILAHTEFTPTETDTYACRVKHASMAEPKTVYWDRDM
# Protocol: (§1) FIGS. 4A-4C illustrate that α-GalCerBf binds CD1d and activates murine NKT cells in vitro. FIG. 4A: NKT cell hybridomas (see Example 4) were stained with anti-CD3 antibodies, and empty mCD1d tetramers or CD1d tetramers were loaded with α-GalCerBf or KRN7000. Flow cytometry plots representative of three independent experiments are shown. FIG. 4B: Hybridomas were cultured with BMDCs (bone marrow-derived dendritic cells) pre-pulsed with LPS or LPS+α-GalCerBf in the presence of control Ig or anti-CD1d blocking antibodies. IL-2 secretion was measured in supernatants 16 hr later. Data are representative of three independent experiments. FIG. 4C: Liver mononuclear cells were cultured with splenocytes plus increasing amounts of α-GalCerBf in the presence or absence of anti-CD1d blocking antibodies. IFN-γ secretion was measured in supernatants on day 5. Data are representative of three independent experiments.
# The reagents used in Examples 4 and 5 for the immunology studies were as follows. PBS-57 loaded mCDld tetramers, which were used for mouse experiments, and unloaded mCD1d monomers were obtained from the NIH Tetramer Core Facility. For loading, monomers were incubated with KRN7000 or α-GalCerBf diluted in DMSO at 6 fold molar excess at 37° C. for 3 hrs in the presence of pepstatin, leupeptin, EDTA and TWEEN 20. Samples were concentrated using a 30K microconcentrator. Monomers were tetramerized by incubation with streptavidin-conjugated allophycocyanin (APC) (Molecular Probes, Inc., Eugene, Oreg.) at a 1:1 ratio. Staining was performed at room temperature for 1 hr. […] Viability was determined by staining cells with LIVE/DEAD fixable Aqua stain (Invitrogen Life Technologies, Carlsbad, Calif.) per manufacturer's instructions. […]
# Synthetic CD1d tetramers were loaded with each sphingolipid, KRN7000 and α-GalCerBf), and the capability of the sphingolipid/CD1d-tetramer complex (hereafter called ‘tetramer’) to stain three NKT-cell-derived hybridomas was determined (see, e.g., Brossay et al., J. Immunol. […]
# NKT cell hybridomas = assay: IL-2 production by NKT cell hybridomas cultured with BMDCs (ELISA); format: cell-based, mouse
# Protocol: as §1
# BMDCs and NKT hybridomas were cultured at a 3:1 hybridoma:BMDC ratio and the indicated doses of KRN7000 or α-GalCerBf in the presence of 1 μg/ml LPS. Supernatants were harvested after 24 hrs, and IL-2 production was measured by ELISA. […]
# NKT hybridomas were stimulated in dose titration experiments. […] Supernatants were harvested after 24 hr, and IL-2 production was measured by ELISA. […] Supernatants were harvested after 16-18 hr and IL-2 production was measured by ELISA.
# [2] = tested on: cyclophosphamide (CY) induced diabetes; conditions: NOD mouse model; Sharif et al.; cited from earlier work
smiles,measurement,setting,value
CCCCCCCCCCCCCCCCCCCCCCCCCC(=O)N[C@@H](CO[C@H]1O[C@H](CO)[C@H](O)[C@H](O)[C@H]1O)[C@H](O)[C@H](O)CCCCCCCCCCCCCC [KRN7000],MFI (Median Fluorescence Intensity) of tetramer staining,[1]; DN3A4-1.2 (1.2) hybridoma,2151
same,MFI (Median Fluorescence Intensity) of tetramer staining,[1]; DN3A4-1.4 (1.4) hybridoma,683
same,MFI (Median Fluorescence Intensity) of tetramer staining,[1]; N38-2C12 (2C12) hybridoma,8932
same,Sensitivity of hybridoma to KRN7000 relative to α-GalCerBf (IL-2),NKT cell hybridomas; hybridoma 1.2,30 fold
same,Sensitivity of hybridoma to KRN7000 relative to α-GalCerBf (IL-2),NKT cell hybridomas; hybridoma 1.4,80 fold
same,Effect on cyclophosphamide (CY) induced diabetes,[2],prevents
